Results published in paper PMC8434491, “Targeting the Integrated Stress Response Kinase GCN2 to Modulate Retroviral Integration” (Molecules, 2021).

Columns and labels:
[1] = molecular target: T1, IN's phosphorylation catalyzed by GCN2 (Homo sapiens, UniProt Q9P2K8); assay: In vitro phosphorylation assay: phosphorylation of IN catalyzed by GCN2; format: biochemical, human GCN2 / HIV-1 IN
T1 construct: expressed as a truncated version (192-1024) in fusion after a glutathione S-transferase tag; purchased SignalChem (GCN2); IN made in house in E. coli BL21 pLys E12-11G; host or cells: E. coli BL21 pLys (IN)
T1 sequence (Q9P2K8 192-1024): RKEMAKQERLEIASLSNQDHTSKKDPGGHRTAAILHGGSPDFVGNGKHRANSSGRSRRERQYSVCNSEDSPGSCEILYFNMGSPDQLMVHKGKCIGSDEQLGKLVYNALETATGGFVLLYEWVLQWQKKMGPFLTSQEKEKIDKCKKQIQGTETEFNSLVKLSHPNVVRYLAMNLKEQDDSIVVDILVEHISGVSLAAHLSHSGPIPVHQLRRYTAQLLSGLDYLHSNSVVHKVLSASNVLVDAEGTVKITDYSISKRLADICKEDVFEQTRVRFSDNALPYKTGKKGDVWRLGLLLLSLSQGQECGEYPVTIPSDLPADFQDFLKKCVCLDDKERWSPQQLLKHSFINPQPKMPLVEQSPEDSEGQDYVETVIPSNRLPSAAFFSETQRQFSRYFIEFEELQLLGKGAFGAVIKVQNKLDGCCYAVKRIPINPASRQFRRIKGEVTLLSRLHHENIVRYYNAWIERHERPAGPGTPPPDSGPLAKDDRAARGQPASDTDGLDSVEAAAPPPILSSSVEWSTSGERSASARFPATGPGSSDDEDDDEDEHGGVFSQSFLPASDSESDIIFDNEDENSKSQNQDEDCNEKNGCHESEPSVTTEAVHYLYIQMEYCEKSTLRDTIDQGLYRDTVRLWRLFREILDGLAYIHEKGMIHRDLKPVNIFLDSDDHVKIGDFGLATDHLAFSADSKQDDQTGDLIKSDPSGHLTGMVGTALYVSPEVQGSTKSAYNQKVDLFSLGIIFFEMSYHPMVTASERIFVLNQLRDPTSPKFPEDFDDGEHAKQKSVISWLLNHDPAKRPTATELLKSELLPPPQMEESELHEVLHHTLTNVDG
Method: Enzymes. GCN2 was purchased from SignalChem (EIF2AK4, cat. #E12-11G). […] Recombinant full-length IN was expressed in E. coli BL21 pLys (IPTG induction) and purified on a nickel chelating column, as described. Integrity and purity were checked by direct Coomassie coloration of elution fractions on SDS-PAGE before dialysis to remove imidazole.
In vitro phosphorylation assay. […] Reactions (20 µL) were stopped after a 60 min incubation at 30 °C by adding 10 µL of loading buffer [80 mM Tris-HCl pH 6.8, 100 mM DTT, 10% glycerol, 1% sodium dodecyl sulfate (SDS) and 0.05% bromophenol blue]. Samples were then loaded onto a 10% denaturating SDS-PAGE. After protein separation (120 V for 120 min) the gel was stained using Coomassie Brilliant Blue R-250. Autoradiography was performed using an imaging plate (Fujifilm, Tokyo, Japan) and images were obtained with a FLA-5000 Imaging System (Fujifilm).

[2] = molecular target: T2, GCN2 (Homo sapiens, UniProt Q9P2K8); assay: In vitro phosphorylation assay: GCN2 activation (auto-phosphorylation); format: biochemical; details: without IN, read-out: GCN2 auto-phosphorylation signal, % of the DMSO control
T2 construct: expressed as a truncated version (192-1024) in fusion after a glutathione S-transferase tag; purchased SignalChem E12-11G
T2 sequence (Q9P2K8 192-1024): T1 sequence (Q9P2K8 192-1024)

[3] = molecular target: T3, IN–GCN2 interaction (UniProt P04585+Q9P2K8); assay: IN–GCN2 interaction assay (AlphaLISA); format: binding, HIV-1 IN / human GCN2; details: pilot screen, single dose of 100 µM; read-out: inhibition of the IN–GCN2 interaction signal
T3 construct: expressed as a truncated version (192-1024) in fusion after a glutathione S-transferase tag; Recombinant full-length IN was expressed in E. coli BL21 pLys; purchased SignalChem (GCN2); IN made in house in E. coli BL21 pLys E12-11G; host or cells: E. coli BL21 pLys (IN)
Source text: We developed an in vitro plate-based assay to monitor the interaction between GCN2 and IN using the AlphaLISA technology (Figure 1). Taking advantage of the tags present on each recombinant protein (6xHis for IN prepared “in-house”, and GST for GCN2 commercially available), we used specific beads that fluoresce only when they are in close proximity (<200 nm). The signal obtained (light count) is directly proportional to the binding of IN to GCN2 (homogenous solution assay at steady state).
IN–GCN2 interaction assay. Protein–protein interactions were monitored using the AlphaLISA technology (Perkin Elmer) taking advantage of the GST and 6xHis tags of GCN2 and IN, respectively. Accordingly, AlphaScreen GSH Donor beads and AlphaLISA Nickel Acceptor beads were used (Perkin Elmer). Reactions were carried out at room temperature by incubating GCN2 with drugs or DMSO for 5 min before addition of AlphaLISA Nickel Acceptor beads. After 5 min, IN was added to the reaction mixture and incubated for 20 min before adding the AlphaScreen GSH Donor beads. This interaction assay was performed in conditions similar to the in vitro phosphorylation assay, already described, using 25 nM GCN2 and 700 nM (except indicated otherwise) in a reaction buffer containing 50 mM Tris-HCl pH 7.5, 40 mM NaCl, 1 mM dithiothreitol (DTT), 0.05% Tween 20, 0.1% bovine serum albumin (BSA), 10 µg/mL of each donor and acceptor beads. Alpha signal was measured using an EnSight plate reader (Perkin Elmer) 120 min after the addition of the latest component of the reaction (unless indicated otherwise).

O=C1c2c(O)ccc(O)c2C(=O)c2c(NCCNCCO)ccc(NCCNCCO)c21 [NSC279836, Mitoxantrone]
concentration giving full inhibition of IN phosphorylation ([1]; serial dilutions from 300 µM to 137 nM): 300 µM
apparent IC50, IN phosphorylation ([1]; serial dilutions from 300 µM to 137 nM, in words): low micromolar range
inhibition at 100 µM ([1]; single dose of 100 µM, compared to DMSO, read-out: decrease (inhibition) in IN phosphorylation): ~65%
remaining activity at 100 µM [2]: 145%
inhibition at 100 µM [3]: 99.4%
